Key:
Assay type in all cases: cell-based
JAG1 = assay: RNA-seq of JAG1 expression in compound-treated primary human hepatocytes; conditions: for JAG1 Fold Change (Log2): primary human hepatocytes; for Significant modulation of JAG1 (in words): summary of Table 6
Protocol: (§1) Human hepatocytes were obtained from two donors from Massachusetts General Hospital, namely MGH54 and MGH63, and one donor from Lonza, namely HUM4111B. Cryopreserved hepatocytes were cultured in plating media for 16 hours, transferred to maintenance media for 4 hours. Cultured on serum-free media for 2 hours, then a compound was added. The hepatocytes were maintained on the serum-free media for 16 hours prior to gene expression analysis. Primary human hepatocytes were stored in the vapor phase of a liquid nitrogen freezer (about -130° C.). Human hepatocytes cultured as described above were plated in 24-well format, adding 375,000 cells per well in a volume of 500 ul plating medium. Four hours before treatment, cells were washed with PBS and the medium was changed to either: fresh maintenance medium (complete) or modified maintenance medium. Compound stocks were prepared at 1000× final concentration and added in a 2-step dilution to the medium to reduce risk of a compound precipitating out of solution when added to the cells, and to ensure reasonable pipetting volumes. […] The plate was mixed by carefully swirling and after all wells were treated and returned to the incubator overnight. If desired, separate plates/wells were treated with vehicle-only controls and/or positive controls. If using multi-well plates, controls were included on each plate. After about 18 hours, cells were harvested for further analysis, e.g., ChIP-seq, RNA-seq, ATAC-seq, etc. This protocol is a modified version of the following protocols: MagMAX mirVana Total RNA Isolation Kit User Guide (Applied Biosystems #MAN0011131 Rev B.0), NEBNext Poly(A) mRNA Magnetic Isolation Module ([…]), and NEBNext Ultra Directional RNA Library Prep Kit for Illumina ([…]) (New England Biosystems #E74901). […] Two hundred μl of Lysis Binding Mix was used per well of the multiwell plate containing adherent cells (usually a 24-well plate). For mRNA isolation and library prep, the NEBNext Poly(A) mRNA Magnetic Isolation Module and Directional Prep kit was used. RNA isolated from cells above was quantified, and prepared in […] of each sample in 50 μl of nuclease-free water. This protocol may be run in microfuge tubes or in a 96-well plate. […] Genomic alignments were converted to transcriptome alignments based on reference transcript annotations from the Human GENCODE Gene Set release 24 (Harrow et al., Genome Res. […] Standard QC were applied (read integrity, mapping statistics, library complexity, fragment bias) to remove unsatisfactory samples. Differential gene expression was computed using the negative binomial model implemented by DESeq2 version 1.16.1 (Love et al., Genome Biol. (2014) 15(12):550). […] RNA-seq signals were also normalized by read depth and visualized using the UCSC browser. To identify small molecules that modulate target gene expression, primary human hepatocytes were prepared as a monoculture, and at least one small molecule compound was applied to the cells. RNA-seq was performed to determine the effects of the compounds on the expression of the target genes in hepatocytes. Fold change was calculated by dividing the level of expression in the cell system that had been perturbed by the level of expression in an unperturbed system.

NOTCH2 = assay: RNA-seq of NOTCH2 expression in compound-treated primary human hepatocytes; conditions: for NOTCH2 Fold Change (Log2): primary human hepatocytes; for Significant modulation of NOTCH2 (in words): summary of Table 6
Protocol: as §1

LECT2 = assay: RNA-seq of LECT2 expression in compound-treated primary human hepatocytes
Protocol: (§2) Human hepatocytes were obtained from two donors from Massachusetts General Hospital, namely MGH54 and MGH63, and one donor from Lonza, namely HUM4111B. Cryopreserved hepatocytes were cultured in plating media for 16 hours, transferred to maintenance media for 4 hours. Cultured on serum-free media for 2 hours, then a compound was added. The hepatocytes were maintained on the serum-free media for 16 hours prior to gene expression analysis. Primary human hepatocytes were stored in the vapor phase of a liquid nitrogen freezer (about −130° C.).
(§3) Human hepatocytes cultured as described above were plated in 24-well format, adding 375,000 cells per well in a volume of 500 ul plating medium. Four hours before treatment, cells were washed with PBS and the medium was changed to either: fresh maintenance medium (complete) or modified maintenance medium.
(§4) Compound stocks were prepared at 1000× final concentration and added in a 2-step dilution to the medium to reduce risk of a compound precipitating out of solution when added to the cells, and to ensure reasonable pipetting volumes. One at a time, each compound was first diluted 10-fold in warm (about 37° C.) modified maintenance medium (initial dilution=ID), mixed by vortexing, and the ID was diluted 100-fold into the cell culture (e.g. 5.1 ul into 1 well of a 24-well plate containing 0.5 mL medium). The plate was mixed by carefully swirling and after all wells were treated and returned to the incubator overnight. If desired, separate plates/wells were treated with vehicle-only controls and/or positive controls. If using multi-well plates, controls were included on each plate. After about 18 hours, cells were harvested for further analysis, e.g., ChIP-seq, RNA-seq, ATAC-seq, etc.
(§5) This protocol is a modified version of the following protocols: MagMAX mirVana Total RNA Isolation Kit User Guide (Applied Biosystems #MAN0011131 Rev B.0), NEBNext Poly(A) mRNA Magnetic Isolation Module (E7490), and NEBNext Ultra Directional RNA Library Prep Kit for Illumina (E7420) (New England Biosystems #E74901).
(§6) The MagMAX mirVana kit instructions (the section titled “Isolate RNA from cells” on pages 14-17) were used for isolation of total RNA from cells in culture. Two hundred μl of Lysis Binding Mix was used per well of the multiwell plate containing adherent cells (usually a 24-well plate).
(§7) For mRNA isolation and library prep, the NEBNext Poly(A) mRNA Magnetic Isolation Module and Directional Prep kit was used. RNA isolated from cells above was quantified, and prepared in […] of each sample in 50 μl of nuclease-free water. This protocol may be run in microfuge tubes or in a 96-well plate.
Standard QC were applied (read integrity, mapping statistics, library complexity, fragment bias) to remove unsatisfactory samples. […] Log 2 fold change and significance values were computed using PME count data (with replicates explicitly modeled versus pan-experiment controls), median ratio normalized, using maximum likelihood estimation rather than maximum a posteriori, and disabling the use of Cook's distance cutoff when determining acceptable adjusted p-values. […] RNA-seq signals were also normalized by read depth and visualized using the UCSC browser.
To identify small molecules that modulate target gene expression, primary human hepatocytes were prepared as a monoculture, and at least one small molecule compound was applied to the cells.
RNA-seq was performed to determine the effects of the compounds on the expression of the target genes in hepatocytes. Fold change was calculated by dividing the level of expression in the cell system that had been perturbed by the level of expression in an unperturbed system. Changes in expression having a p-value ≤0.05 were considered significant.
Significance was defined as an FPKM ≥1, a log 2(fold change) ≥0.5, and a q-value of ≤0.05 for all targets except for CPOX.

FN1 = assay: RNA-seq of FN1 expression in compound-treated primary human hepatocytes; conditions: perturbed vs unperturbed, significance FPKM ≥1, log 2(fold change) ≥0.5, q-value ≤0.05
Protocol: as §2, §3, §4, §5, §6, §7
All pass filter reads from each sample were mapped against the human genome (assembly GRCh38/GCA_000001405.15 “no alt” analysis set merged with hs38d1/GCA_000786075.2) using two pass mapping via STAR version 2.5.3a (alignment parameters alignIntronMin=20; alignIntronMax=1000000; outFilterMismatchNmax=999; outFilterMismatchNoverLmax=0.05; outFilterType=BySJout; outFilterMultimapNmax=20; alignSJoverhangMin=8; alignSJDBoverhangMin=1; alignMatesGapMax=1000000) (Dobin et al., Bioinformatics (2012) 29(1):15-21). Genomic alignments were converted to transcriptome alignments based on reference transcript annotations from the Human GENCODE Gene Set release 24 (Harrow et al., Genome Res. (2012) 22(9): 1760-1774). Using unique and multimapped transcriptomic alignments, gene-level abundance estimates were computed using RSEM version 1.3.0 (Li and Dewey, BMC Bioinformatics (2011) 12:323) in a strand-aware manner, and including confidence interval sampling calculations, to arrive at posterior mean estimates (PME) of abundances (counts and normalized FPKM—fragments per kilobase of exon per million mapped fragments) from the underlying Bayesian model. Standard QC were applied (read integrity, mapping statistics, library complexity, fragment bias) to remove unsatisfactory samples.

ANGPTL3 = assay: RNA-seq of ANGPTL3 expression in compound-treated primary human hepatocytes; conditions: additional compounds (Table 13), linear fold change
In short: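 Cryopreserved primary human hepatocytes from three donors, plated at 375,000 cells/well, switched to complete or modified maintenance medium, then dosed with compound (stocks at 1000× final) for about 18 h. Poly(A) mRNA was sequenced directionally, mapped to GRCh38 with STAR, and gene-level abundance (counts, FPKM) estimated with RSEM against GENCODE 24.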

UGT1A1 = assay: RNA-seq of UGT1A1 expression in compound-treated primary human hepatocytes
In short: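 Cryopreserved primary human hepatocytes from three donors were plated in 24-well format, then treated with compound diluted from 1000× stocks in serum-free maintenance medium for about 16–18 h. Poly(A) RNA-seq log2 fold change was computed against vehicle/pan-experiment controls. Significance required FPKM ≥1, log2FC ≥0.5 and q ≤0.05.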

Molecule | LECT2 Fold Change (Log2) (LECT2) | FN1 Fold Change (Log2) (FN1) | ANGPTL3-LINEAR FOLD CHANGE (ANGPTL3) | other results
740 Y-P | −0.62 | – | – | JAG1 Fold Change (Log2) (JAG1): 0 Log2; NOTCH2 Fold Change (Log2) (NOTCH2): 0.66 Log2; Significant modulation of NOTCH2 (in words) (NOTCH2): significantly modulate only NOTCH2
CN1CCN(S(=O)(=O)c2ccc(-c3cnc(N)c(C(=O)Nc4cccnc4)n3)cc2)CC1 [AZD2858] | – | −1.23 | 0.3186 | –
CN(C)C/C=C/C(=O)Nc1cc2c(Nc3ccc(F)c(Cl)c3)ncnc2cc1O[C@H]1CCOC1 [Afatinib] | −0.75 | −0.98 | 0.3078 | –
CCOC(=O)C1=C(COCCN)NC(C)=C(C(=O)OC)C1c1ccccc1Cl (stereo not shown) [Amlodipine Besylate] | −0.55 | −1.22 | 0.3035 | –
CCN1CCN(c2ccc(Nc3cc(N(C)C(=O)Nc4c(Cl)c(OC)cc(OC)c4Cl)ncn3)cc2)CC1 [BGJ398] | – | −1.36 | 0.3368 | –
C=C1/C(=C\C=C2/CCC[C@]3(C)[C@@H]([C@H](C)CCCC(C)(C)O)CC[C@@H]23)C[C@@H](O)C[C@@H]1O [Calcitriol] | −1.82 | −0.79 | 0.483 | –
COc1cc2c(Oc3ccc4[nH]c(C)cc4c3F)ncnc2cc1OCCCN1CCCC1 [Cediranib] | – | −0.79 | 0.4323 | –
c1ccc2c(-c3cnn4cc(-c5ccc(N6CCNCC6)cc5)cnc34)ccnc2c1 [LDN193189] | – | −0.87 | 0.4204 | JAG1 Fold Change (Log2) (JAG1): 2.07 Log2; Significant modulation of JAG1 (in words) (JAG1): significantly modulate only JAG1; NOTCH2 Fold Change (Log2) (NOTCH2): 0 Log2
NCC(=O)Nc1ccc(-n2nc(C(F)(F)F)cc2-c2ccc3c(ccc4ccccc43)c2)cc1 [OSU-03012] | −0.77 | −1.03 | 0.4965 | –
Cc1[nH]c(/C=C2\C(=O)Nc3ccc(S(=O)(=O)Cc4c(Cl)cccc4Cl)cc32)c(C)c1C(=O)N1CCC[C@@H]1CN1CCCC1 [PHA-665752] | – | −1.14 | – | –
Cc1c(C(=O)NN2CCCCC2)nn(-c2ccc(Cl)cc2Cl)c1-c1ccc(Cl)cc1 [Rimonabant] | −0.81 | −0.76 | 0.4538 | –
CC(C)c1nc(CN(C)C(=O)N[C@H](C(=O)N[C@@H](Cc2ccccc2)C[C@H](O)[C@H](Cc2ccccc2)NC(=O)OCc2cncs2)C(C)C)cs1 [Ritonavir] | −1.00 | – | – | UGT1A1 Fold Change (Log2) (UGT1A1): 0.63 Log2
CNC1CCC(N(Cc2cccc(-c3ccncc3)c2)C(=O)c2sc3ccccc3c2Cl)CC1 (stereo not shown) [Smoothened Agonist] | – | −1.95 | 0.3035 | –
CN1CCN(CCCN2c3ccccc3Sc3ccc(C(F)(F)F)cc32)CC1 [TFP] | −0.91 | – | 0.2832 | –
COc1cc2nccc(Oc3ccc(NC(=O)Nc4cc(C)on4)c(Cl)c3)c2cc1OC [Tivozanib] | – | −0.8 | 0.4204 | –
CCOC(=O)N1c2ccc(C(F)(F)F)cc2[C@@H](N(Cc2cc(C(F)(F)F)cc(C(F)(F)F)c2)C(=O)OC)C[C@H]1CC [Torcetrapib] | −0.86 | – | – | JAG1 Fold Change (Log2) (JAG1): 0.68 Log2; Significant modulation of JAG1 (in words) (JAG1): significantly modulate both JAG1 and NOTCH2; NOTCH2 Fold Change (Log2) (NOTCH2): 0.76 Log2; Significant modulation of NOTCH2 (in words) (NOTCH2): significantly modulate both JAG1 and NOTCH2
COc1nc(C)cnc1NS(=O)(=O)c1cccnc1-c1ccc(-c2nnco2)cc1 [Zibotentan] | −0.83 | – | – | JAG1 Fold Change (Log2) (JAG1): 0 Log2; NOTCH2 Fold Change (Log2) (NOTCH2): 0.94 Log2; Significant modulation of NOTCH2 (in words) (NOTCH2): significantly modulate only NOTCH2
COc1nc(N)nc2c1ncn2[C@@H]1O[C@H](COP(=O)(N[C@@H](C)C(=O)OCC(C)(C)C)Oc2cccc3ccccc23)[C@@H](O)[C@@]1(C)O (stereo partly shown) [bms-986094 (inx-189)] | – | −1.00 | – | –
